Data reported in PubChem BioAssay AID1845213 (Molecular Pharmacology Branch, DTP, NCI, 2023).
Activity calls are given as the source filed them. The calls were made as follows: active = viability on the fitted dose curve at most 10% of control; inactive = the rest.

Test system: NCI-H841 complex tumor spheroid viability
Test: Anticancer human tumor NCI-H841 cell line growth inhibition;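 as to IC50: spheroids exposed to compounds for 7 days before readout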;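 as to viability, T/C: spheroids exposed to compounds for 7 days before readout; 100% = DMSO vehicle control wells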
Settings: for IC50: curve of first compound; for viability, T/C: stronger effect = lower value
Method in brief: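 Complex tumor spheroids combined malignant cells with endothelial cells and mesenchymal stem cells. DNA-damaging drugs and DNA repair inhibitors were tested alone and in combination, at half-log dilutions down from clinical Cmax (top 10 microM if Cmax unknown), 0.25% DMSO final.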

[1] = second compound 1 µM, first compound 0.0316 µM
[2] = second compound 1 µM, first compound 0.1 µM
[3] = second compound 1 µM, first compound 0.316 µM
[4] = second compound 1 µM, first compound 1 µM
[5] = second compound 1 µM, first compound 3.16 µM
[6] = second compound 1 µM, first compound 10 µM
[7] = second compound 3.16 µM, first compound 0.0316 µM
[8] = second compound 3.16 µM, first compound 0.1 µM
[9] = second compound 3.16 µM, first compound 0.316 µM
[10] = second compound 3.16 µM, first compound 1 µM
[11] = second compound 3.16 µM, first compound 3.16 µM
[12] = second compound 3.16 µM, first compound 10 µM
[13] = second compound 10 µM, first compound 0.0316 µM
[14] = second compound 10 µM, first compound 0.1 µM
[15] = second compound 10 µM, first compound 0.316 µM
[16] = second compound 10 µM, first compound 1 µM
[17] = second compound 10 µM, first compound 3.16 µM
[18] = second compound 10 µM, first compound 10 µM
[19] = second compound 31.6 µM, first compound 0.0316 µM
[20] = second compound 31.6 µM, first compound 0.1 µM
[21] = second compound 31.6 µM, first compound 0.316 µM
[22] = second compound 31.6 µM, first compound 1 µM
[23] = second compound 31.6 µM, first compound 3.16 µM
[24] = second compound 31.6 µM, first compound 10 µM
[25] = second compound 100 µM, first compound 0.0316 µM
[26] = second compound 100 µM, first compound 0.1 µM
[27] = second compound 100 µM, first compound 0.316 µM
[28] = second compound 100 µM, first compound 1 µM
[29] = second compound 100 µM, first compound 3.16 µM
[30] = second compound 100 µM, first compound 10 µM

SMILES | IC50 (second compound 1 µM) | IC50 (second compound 3.16 µM) | IC50 (second compound 10 µM) | IC50 (second compound 31.6 µM) | IC50 (second compound 100 µM) | viability, T/C [1] | viability, T/C [2] | viability, T/C [3] | viability, T/C [5] | viability, T/C [6] | viability, T/C [8] | viability, T/C [9] | viability, T/C [10] | viability, T/C [11] | viability, T/C [12] | viability, T/C [13] | viability, T/C [14] | viability, T/C [15] | viability, T/C [17] | viability, T/C [18] | further results
CC(C)n1c(=O)n(C)c2cnc3cc(F)c(-c4ccc(OCCCN5CCCCC5)nc4)cc3c21 + Cn1nnc2c(C(N)=O)ncn2c1=O | > 10 µM | > 10 µM | > 10 µM | 8.52 µM | 3.91 µM | 91.3% | 93.5% | 95.3% | 85.8% | 57.5% | 96.1% | 99.9% | 90.5% | 89.3% | 77.4% | 93.1% | 94.1% | 94.8% | 88% | 62.4% | viability, T/C [4]: 92.3%; viability, T/C [7]: 94.5%; outcome [16]: inactive; viability, T/C [19]: 91%; viability, T/C [20]: 92.2%; viability, T/C [21]: 87.9%; viability, T/C [22]: 88.4%; viability, T/C [23]: 76.2%; viability, T/C [24]: 45.8%; viability, T/C [25]: 84.4%; viability, T/C [26]: 82.8%; viability, T/C [27]: 77.9%; viability, T/C [28]: 75.9%; viability, T/C [29]: 52.9%; viability, T/C [30]: 35.5%
CC1COCCN1c1cc(-c2ccnn2C)c2ccnc(-c3ccn[nH]3)c2n1 (stereo not given) + Cn1nnc2c(C(N)=O)ncn2c1=O | 0.0491 µM | 0.0376 µM | 0.0363 µM | 0.0369 µM | < 0.0316 µM | 66% | 24.1% | 8.33% | 1.79% | 1.91% | 20.8% | 5.48% | 2.34% | 1.67% | 1.99% | 55.4% | 12.6% | 6.12% | 1.4% | 1.82% | viability, T/C [4]: 2.75%; outcome [7]: inactive; viability, T/C [16]: 2.58%; viability, T/C [19]: 56%; viability, T/C [20]: 12.1%; viability, T/C [21]: 4.22%; viability, T/C [22]: 1.97%; viability, T/C [23]: 1.42%; viability, T/C [24]: 1.66%; viability, T/C [25]: 23.6%; viability, T/C [26]: 6.68%; viability, T/C [27]: 1.75%; viability, T/C [28]: 2.09%; viability, T/C [29]: 2.84%; viability, T/C [30]: 1.47%
COc1ccc([C@@H](O)c2cc(-c3ncnc4cc(N5CCOCC5)ccc34)c(F)cc2Cl)nn1 + Cn1nnc2c(C(N)=O)ncn2c1=O | 2.04 µM | 2.01 µM | 2.05 µM | 2.27 µM | 1.82 µM | 100% | 99.1% | 92.7% | 36% | 7.89% | 104% | 97.1% | 70.7% | 36.4% | 8.99% | 103% | 105% | 91% | 32.1% | 9.08% | outcome [4]: inactive; viability, T/C [7]: 102%; viability, T/C [16]: 80.1%; viability, T/C [19]: 97.5%; viability, T/C [20]: 99.7%; viability, T/C [21]: 95.3%; viability, T/C [22]: 79.3%; viability, T/C [23]: 38.1%; viability, T/C [24]: 8.74%; viability, T/C [25]: 97.5%; viability, T/C [26]: 100%; viability, T/C [27]: 87%; viability, T/C [28]: 71%; viability, T/C [29]: 31.5%; viability, T/C [30]: 7.13%
